Measurements published in patent US20070037833A1, “Compositions and methods for inhibiting neurodegeneration” (priority 2005, published 2007).
“And” between values parts separate entries of the source, which are not always exact repeats. Identical values can stand only once. “Also recorded” adds a separate entry of the source.

Assays:
[1] = test system: motor neurons in embryonic rat spinal cord cultures; assay: Excitotoxicity assay (100 μM kainic acid) in mixed spinal cord cultures; assay type: cell-based
Method: Unless otherwise specified, BDNF was added to all cultures.
Many previous in vitro investigations have identified motor neurons in mixed spinal cord cell culture by immunostaining for non-phosphorylated neurofilaments (or peripherin) and restricting analysis to cells with a soma diameter of 25 μm or greater (Carriedo et al., 2000; Hu and Kalb, 2003). We wanted to confirm the validity of this approach using an independent method for determining whether a given cell is a motor neuron. To specifically identify motor neurons in our cultures we purified these cells by metrizamide gradient and immunopanning techniques (Henderson et al., 1993; Fryer et al., 1999), live-labeled them with CM-DiI, and added these fluorescently-tagged, bona fide motor neurons to mixed cell cultures at the time of initial plating. All CM-DiI labeled cells stained for motor neurons markers such as non-phosphorylated neurofilament H (using antibody, SMI-32), peripherin, choline acetyl transferase (ChAT) and islet ½ (FIG. 1, panel a.). We then subjected spinal cord cultures to an excitotoxic insult and determined motor neuron survival using multiple methods for identifying motor neurons. […] Since all SMI-32 (+) cells with cell body diameter of 25 μm or greater were CM-DiI (+) and all CM-DiI (+) cells were SMI-32 (+), for the remainder of the studies herein, we could confidently study motor neuron death in vitro by counting SMI-32 (+) cells with a cell body diameter of 25 μm or greater.

[2] = test system: Trk; assay: Immunoblot for phosphoTrk in spinal cord cultures; assay type: cell-based, rat
Method: Cells were lysed in 1% NP-40 lysis buffers containing protease inhibitors, subjected to SDS-PAGE and immunoblotted as previously described (Fryer et al., 1999; Fryer et al., 2000). For immunoprecipitation, lysates from 60 mm dishes were pre-cleared by incubation with protein A beads (Santa Cruz), incubated with primary antibody (4 μg/ml)×2 hours then 50 μL of beads added and incubated overnight with gentle agitation at 4° C. Beads were pelleted, washed 5× with 10 mM Tris pH 7.4+0.5 mM EGTA+0.5 mM EDTA+0.1% NP40 before elution in 1× Laemelli sample buffer. Antibody sources: BD Transduction Labs—TrkB and MAP Kinase used at 1:500, Cell Signaling—Akt 1:1000; phosphoTrk (tyr490) 1:1000; phospho p42/44 MAP Kinase (thr 202/tyr204) 1:1000; phosphoAkt (ser473) 1:500; IGFI antibody (tyr 1131) 1:500. Upstate—adenosine A2a 1:1000. Sigma—actin 1:200. Biosource—active src (clone 28) 1:200.
We next asked about the effect of the adenosine A2 receptor antagonism on Trk signaling. Cultures of spinal cord cells (grown in the presence of a cocktail of trophic factors including 10 ng/ml BDNF) received KW6002 (1 μM), MRS1754 (50 nM) or vehicle (DMSO 0.1%) and 24 hrs. later, lysates were prepared for immunoblots for Trk and the MAP kinase downstream signaling module (FIG. 2, panel a). Immunoblots for phosphoTrk and phosphoMAPK were employed to monitor the state of activation of these proteins.
We followed up these observations by determining the effect of enprofylline on Trk signaling and determined the extent to which the resultant biochemical changes mimic the effects of direct pharmacological Trk antagonism with CEP4416. […] The effect of drug treatment on AKT was particularly marked. […] To determine the specificity of these agents, we examined their effect on Insulin-like growth factor 1 (IGF1) signaling through the IGF receptor tyrosine kinase (IGFR). […] It is unlikely that phosphodiesterase activity of enprofylline can explain these observations as increased cAMP levels enhance, not suppress, TrkB activation (Boulanger and Poo, 1999; Ji et al., 2005).

[3] = test system: Akt; assay: Immunoblot for phosphoAKT in spinal cord cultures; assay type: cell-based, rat
[4] = test system: purified motor neurons
Method: Embryonic Sprague-dawley rat spinal cord neurons were grown on previously established cortical astrocyte monolayers as previously described (Hu and Kalb, 2003). Briefly, the cerebral cortex of postnatal day (P) 1-3 rat pups was dissociated and plated on tissue culture plastic (Primeria) or laminin/polylysine coated glass overslips and maintained in Minimal Essential Media (10% horse serum, 10% fetal bovine serum) and 10 μM AraC was added for 1 day to arrest further proliferation when confluent. Under these conditions, no cortical neurons are present in these cultures. […]
The media was removed (and saved), cells were exposed to 100 μM kainic acid or vehicle in Locke's buffer for one hour, washed three times in Locke's buffer not containing kainic acid and the original media restored to each dish (Hu and Kalb, 2003). […] To quantify the number of stained cells, we counted the number of labeled cells from three non-overlapping fields using a 5× objective on a Zeiss upright Axioskop microscope and the value from one coverslip was averaged. […] When cell body diameter was assessed in select experiments, a reticule was introduced into an eye piece and the length of the long axis of a neuron noted. […]

[5] = 6 hours post drug administration
[6] = 48 hours post drug administration

CCCn1c(=O)[nH]c(=O)c2[nH]cnc21 [enprofylline, 3-propylxanthine]
% motor neuron death, short term (acute) treatment ([1]; drug added 30 minutes prior to excitotoxic challenge, counted 24 hours later): ~40% and 46±4% | excitotoxic motor neuron death ([1]; drug for 4 days (added 4 and 2 days) prior to 100 μM kainic acid 1 h, SMI-32(+) motor neurons counted 24 h later): completely blocked the loss of SMI(+) neurons; also recorded: no excitotoxic motor neuron death | abundance of phosphoTrk ([2]; 6, 24 or 48 hours, 100 μM enprofylline, 30 nM CEP-4416): decrease in the abundance of phosphoTrk at all time points | phosphorylation of Trk [2, 5]: decreases in the phosphorylation of Trk, MAP kinase and Akt | abundance of phosphoTrk ([2]; 24 hours treatment): robust reduction in phosphoTrk, phosphoMAPK and phosphoAKT | abundance of phosphoTrk [2, 6]: decrease in phosphoTrk could still be detected | abundance of phosphoAKT ([3]; 6 and 24 hours, 100 μM enprofylline, 30 nM CEP-4416): decrease in the abundance of phosphoAKT and phosphoMAPK at 6 and 24 hours | phosphorylation of Akt [3, 5]: decreases in the phosphorylation of Trk, MAP kinase and Akt | abundance of phosphoAKT ([3]; 24 hours post drug administration): robust reduction in phosphoTrk, phosphoMAPK and phosphoAKT | abundance of phosphoAKT [3, 6]: remained depressed | % motor neuron death after excitotoxic insult ([4]; 24 hours pre-treatment, grown in BDNF+CT1): 3±1% | death of motor neurons after kainic acid ([4]; pre-treated for 24 hrs): No death of motor neurons occurred
